≈ marks a conversion by molar mass, not a printed value. Read-outs that look alike come from different tables or passages of the source.
Assays:
Assay in all cases: microbe, parasite or virus in culture
[1] = test system: S. aureus 25923; assay type: cell-based, Staphylococcus aureus; conditions: MHB, 37 °C 24 h, peptides 0.5-128 μM, lowest concentration inhibiting 95% of growth, three independent experiments, read-out: MICs, S. aureus 25923
Method: (§1) The peptide antimicrobial activity was determined according to the Clinical and Laboratory Standards Institute method, with modifications. Bacteria concentration was measured by ultraviolet spectrophotometer, and fungi concentration was confirmed by McMillan’s turbidimetric method, which compared the fungi solution with the standard McFarland tube in front of the horizontal line on the paper with the naked eye. Because the light has different refract in different liquids. The standard solution is composed of sulfuric acid and barium chloride, which is equivalent to 1*10^8 CFU fungi. After cultivation, the growth of fungi and bacteria was measured by TECAN automatic enzyme label instrument. Briefly, bacterial cells were cultured in MHB until logarithmic phase, yeast colonies cultured in Yeast Peptone Dextrose Agar (YPDA) were picked and diluted in RPMI 1640 growth medium buffered with morpholine propane sulfonic acid (MOPS), and then 50 μL of bacterial or fungi cell solution (0.5–1 × 10^4 CFU/mL) was added to each well of sterile 96-well plates. Each well contained 50 μL of AMPs dissolved in BSA; the final concentrations of the peptides ranged from 0.5 to 128 μM. The lowest concentration of peptide with no microbial growth being observed were measured after incubation at 37 °C for 24 h for bacteria or at 28 °C for 48 h for fungi. Broth with microbial cells and un-inoculated broth were used as positive control and negative controls, respectively.

[2] = test system: S. aureus 29213; assay type: cell-based, Staphylococcus aureus; conditions: MHB, 37 °C 24 h, peptides 0.5-128 μM, lowest concentration inhibiting 95% of growth, three independent experiments, read-out: MICs, S. aureus 29213
Method: as §1

[3] = test system: C.albicans cgmcc 2.2086; assay type: cell-based, Candida albicans; conditions: C.albicans cgmcc 2.2086
Method: as §1, with “The lowest concentration of peptide with no microbial growth being observed were measured after incubation at 37 °C for 24 h for bacteria or at 28 °C for 48 h for fungi.” left out
The salt and acid sensitivities of the peptides were measured using with modified method to test MIC values; tested peptides were incubated in the presence of different final concentrations of physiological salts. The subsequent steps were consistent with the MIC determination protocol.

[4] = test system: C. tropicalis cgmcc 2.1975; assay type: cell-based; conditions: RPMI 1640 buffered with MOPS, 28 °C 48 h, 0.5-128 μM, read-out: MICs, C. tropicalis cgmcc 2.1975
Method: as §1

[5] = test system: C. parapsilosis cgmcc 2.3989; assay type: cell-based; conditions: RPMI 1640 buffered with MOPS, 28 °C 48 h, 0.5-128 μM, read-out: MICs, C. parapsilosis cgmcc 2.3989
Method: as §1

[6] = test system: L. plantarum 7469; assay type: cell-based; conditions: 37 °C 24 h, peptides 0.5-128 μM, lowest concentration inhibiting 95% of growth, three independent experiments, read-out: MICs, L. plantarum 7469
Method: as §1

[7] = test system: L. rhamnosus 1.0385; assay type: cell-based, Lactobacillus rhamnosus; conditions: 37 °C 24 h, peptides 0.5-128 μM, lowest concentration inhibiting 95% of growth, three independent experiments, read-out: MICs, L. rhamnosus 1.0385
Method: as §1

[8] = test system: L. rhamnosus 1.0911; assay type: cell-based, Lactobacillus rhamnosus; conditions: 37 °C 24 h, peptides 0.5-128 μM, lowest concentration inhibiting 95% of growth, three independent experiments, read-out: MICs, L. rhamnosus 1.0911
Method: as §1

[9] = test system: C. albicans SP3903; assay type: cell-based, Candida albicans; conditions: clinical isolate, RPMI 1640 buffered with MOPS, 28 °C 48 h, 0.5-128 μM, read-out: MICs, C. albicans SP3903
Method: as §1

[10] = test system: C. albicans Isolated from Alveolar Fluid; assay type: cell-based, Candida albicans; conditions: RPMI 1640 buffered with MOPS, 28 °C 48 h, 0.5-128 μM, read-out: MICs, C. albicans Isolated from Alveolar Fluid
Method: as §1

[11] = test system: C. albicans SP3902; assay type: cell-based, Candida albicans; conditions: clinical isolate, RPMI 1640 buffered with MOPS, 28 °C 48 h, 0.5-128 μM, read-out: MICs, C. albicans SP3902
Method: as §1

[12] = test system: C. albicans SP3937; assay type: cell-based, Candida albicans; conditions: clinical isolate, RPMI 1640 buffered with MOPS, 28 °C 48 h, 0.5-128 μM, read-out: MICs, C. albicans SP3937
Method: as §1

[13] = test system: C. albicans cgmcc 2.2086; assay type: cell-based, Candida albicans; conditions: RPMI 1640 buffered with MOPS, 28 °C 48 h, 0.5-128 μM, read-out: MICs, C. albicans cgmcc 2.2086
Method: as §1

[14] = Candida albicans, CGMCC2, no added salt, read-out: MIC, Control
[15] = Candida albicans, CGMCC2, pH = 6 (acidic conditions), read-out: MIC in acid environment, pH = 6
[16] = Candida albicans, CGMCC2, physiological concentration of FeCl3, read-out: MIC in the presence of FeCl3
[17] = Candida albicans, CGMCC2, physiological concentration of KCl, read-out: MIC in the presence of KCl
[18] = Candida albicans, CGMCC2, physiological concentration of MgCl2, read-out: MIC in the presence of MgCl2
[19] = Candida albicans, CGMCC2, physiological concentration of NH4Cl, read-out: MIC in the presence of NH4Cl
[20] = Candida albicans, CGMCC2, physiological concentration of NaCl (Na+), read-out: MIC in the presence of NaCl
[21] = Candida albicans, CGMCC2, physiological concentration of ZnCl2, read-out: MIC in the presence of ZnCl2
[22] = Lodderomyces parapsilosis, CGMCC2
[23] = Lactiplantibacillus plantarum, 7469
[24] = Lacticaseibacillus rhamnosus, 1.0385
[25] = Lacticaseibacillus rhamnosus, 1.0911

SMILES | MIC ([1]; Staphylococcus aureus, 25923) [µM] | MIC ([2]; Staphylococcus aureus, 29213) [µM] | MIC [3, 14] [µM] | MIC [3, 15] [µM] | MIC [3, 16] [µM] | MIC [3, 17] [µM] | MIC [3, 18] [µM] | MIC [3, 19] [µM] | MIC [3, 20] [µM] | MIC [3, 21] [µM] | MIC ([4]; Candida tropicalis, CGMCC2) [µM] | MIC [5, 22] [µM] | MIC [6, 23] [µM] | MIC [7, 24] [µM] | MIC [8, 25] [µM] | MIC ([9]; Candida albicans, SP3903) [µM] | MIC ([10]; Candida albicans) [µM] | MIC ([11]; Candida albicans, SP3902) [µM] | MIC ([12]; Candida albicans, SP3937) [µM] | MIC ([13]; Candida albicans, CGMCC2) [µM] | further results
C[C@@H]1[C@H](O)[C@@H](C)/C=C/C=C/C=C/C=C/C=C/C=C/C=C/[C@H](O[C@@H]2O[C@H](C)[C@@H](O)[C@H](N)[C@@H]2O)C[C@@H]2O[C@](O)(C[C@@H](O)C[C@@H](O)[C@H](O)CC[C@@H](O)C[C@@H](O)CC(=O)O[C@H]1C)C[C@H](O)[C@H]2C(=O)O [Amphotericin B, reference compound] | > 128 | > 128 | 1 | 1 (≈ 0.924 µg/mL) | 1 | 1 | 1 | 1 | 2 | 1 | 1 (≈ 0.924 µg/mL) | 2 (≈ 1.85 µg/mL) | > 128 | > 128 | > 128 | 0.5 (≈ 0.462 µg/mL) | 1 (≈ 0.924 µg/mL) | 0.5 (≈ 0.462 µg/mL) | 0.5 (≈ 0.462 µg/mL) | 1 (≈ 0.924 µg/mL) | –
CC[C@H](C)[C@H](NC(=O)CN)C(=O)NCC(=O)N[C@@H](C)C(=O)N[C@H](C(=O)N[C@@H](CC(C)C)C(=O)N[C@@H](CCCCN)C(=O)N[C@H](C(=O)N[C@@H](CC(C)C)C(=O)N[C@H](C(=O)N[C@H](C(=O)NCC(=O)N[C@@H](CC(C)C)C(=O)N1CCC[C@H]1C(=O)N[C@@H](C)C(=O)N[C@@H](CC(C)C)C(=O)N[C@H](C(=O)N[C@@H](CO)C(=O)N[C@@H](Cc1c[nH]c2ccccc12)C(=O)N[C@H](C(=O)N[C@@H](CCCCN)C(=O)N[C@@H](CCCNC(=N)N)C(=O)N[C@@H](CCCCN)C(=O)N[C@@H](CCCNC(=N)N)C(=O)N[C@@H](CCC(N)=O)C(=O)N[C@@H](CCC(N)=O)C(N)=O)[C@@H](C)CC)[C@@H](C)CC)[C@@H](C)O)[C@@H](C)O)C(C)C)C(C)C [Melittin, reference compound] | – | – | – | – | – | – | – | – | – | – | – | – | – | – | – | – | – | – | – | – | MIC [1]: 2 µM (≈ 5.69 µg/mL); MIC [2]: 2 µM (≈ 5.69 µg/mL); MIC ([3]; no added salt, read-out: MIC, Control): 4 µM; MIC ([3]; pH = 6 (acidic conditions), read-out: MIC in acid environment, pH = 6): 4 µM (≈ 11.4 µg/mL); MIC ([3]; physiological concentration of FeCl3, read-out: MIC in the presence of FeCl3): 4 µM; MIC ([3]; physiological concentration of KCl, read-out: MIC in the presence of KCl): 4 µM; MIC ([3]; physiological concentration of MgCl2, read-out: MIC in the presence of MgCl2): 8 µM; MIC ([3]; physiological concentration of NaCl (Na+), read-out: MIC in the presence of NaCl): 8 µM; MIC ([3]; physiological concentration of ZnCl2, read-out: MIC in the presence of ZnCl2): 4 µM; MIC [4]: 2 µM (≈ 5.69 µg/mL); MIC [5]: 2 µM (≈ 5.69 µg/mL); MIC [6]: >128 µM; MIC [7]: >128 µM; MIC [8]: >128 µM; MIC [9]: 2 µM (≈ 5.69 µg/mL); MIC [10]: 4 µM (≈ 11.4 µg/mL); MIC [11]: 4 µM (≈ 11.4 µg/mL); MIC [12]: 4 µM (≈ 11.4 µg/mL); MIC [13]: 4 µM (≈ 11.4 µg/mL)
OC(Cn1cncn1)(Cn1cncn1)c1ccc(F)cc1F [Fluconazole, reference compound] | > 128 | > 128 | 1 | 1 (≈ 0.306 µg/mL) | 1 | 1 | 1 | 1 | 2 | 1 | 4 (≈ 1.23 µg/mL) | 4 (≈ 1.23 µg/mL) | > 128 | > 128 | > 128 | 32 (≈ 9.8 µg/mL) | 2 (≈ 0.613 µg/mL) | 16 (≈ 4.9 µg/mL) | 16 (≈ 4.9 µg/mL) | 1 (≈ 0.306 µg/mL) | –
